In patent US8530667B2, “Herbicides” (Syngenta Limited, priority 2007, dated 2013):

These compounds were tested on Setaria faberi (SETFA) (assay: Example B pre-emergence herbicidal activity, glasshouse pot test). Details: 312 h, Rate 250 g/ha, evaluated after 13 days, read-out: Pre-Emergence Activity SETFA (100=total damage to plant; 0=no damage to plant).
Format: in vivo
Procedure: (§1) Seeds of a variety of test species were sown in standard soil in pots. After cultivation for one day (pre-emergence) or after 8 days cultivation (post-emergence) under controlled conditions in a glasshouse (at 24/16° C., day/night; 14 hours light; 65% humidity), the plants were sprayed with an aqueous spray solution derived from the formulation of the technical active ingredient in acetone/water (50:50) solution containing 0.5% Tween 20 (polyoxyethelyene sorbitan monolaurate, CAS RN 9005-64-5). The test plants were then grown in a glasshouse under controlled conditions in a glasshouse (at 24/16° C., day/night; 14 hours light; 65% humidity) and watered twice daily. After 13 days for pre and post-emergence, the test was evaluated (100=total damage to plant; 0=no damage to plant). Alopecurus myosuroides (ALOMY), Avena fatua (AVEFA), Setaria faberi (SETFA), Echinochloa crus-galli (ECHCG) and Amaranthus retoflexus (AMARE)
`Cc1sc(-c2ccc(Br)cc2F)nc1C1C(=O)[C@@H]2[C@H](C1=O)[C@H]1CC[C@@H]2O1` (stereo partly shown) [Compound T36] was tested, and the pest or weed control at 250 g/ha was 100%. With `Cc1sc(-c2ccc(Cl)s2)nc1C1C(=O)[C@@H]2[C@H](C1=O)[C@H]1CC[C@@H]2O1` (stereo partly shown) [Compound T37] the pest or weed control at 250 g/ha was 90%. Work on `Cc1sc(-c2ccc(Br)cn2)nc1C1C(=O)[C@@H]2[C@H](C1=O)[C@H]1CC[C@@H]2O1` (stereo partly shown) [Compound T38] yielded a pest or weed control at 250 g/ha of 90%. `Cc1cc(Br)ccc1-c1nc(C2C(=O)[C@@H]3[C@H](C2=O)[C@H]2CC[C@@H]3O2)c(C)s1` (stereo partly shown) [Compound T39] was tested, and the pest or weed control at 250 g/ha was 90%.

The compounds below were run on Avena fatua (AVEFA) in the same assay as above. Details: 312 h, Rate 250 g/ha, evaluated after 13 days, read-out: Pre-Emergence Activity AVEFA (100=total damage to plant; 0=no damage to plant).
Format: in vivo
Procedure: as §1
Compound `Cc1sc(-c2ccc(Br)cc2F)nc1C1C(=O)[C@@H]2[C@H](C1=O)[C@H]1CC[C@@H]2O1` (stereo partly shown) [Compound T36] has a pest or weed control at 250 g/ha of 80%. With `Cc1sc(-c2ccc(Cl)s2)nc1C1C(=O)[C@@H]2[C@H](C1=O)[C@H]1CC[C@@H]2O1` (stereo partly shown) [Compound T37] the pest or weed control at 250 g/ha was 0%. Work on `Cc1sc(-c2ccc(Br)cn2)nc1C1C(=O)[C@@H]2[C@H](C1=O)[C@H]1CC[C@@H]2O1` (stereo partly shown) [Compound T38] yielded a pest or weed control at 250 g/ha of 0%. `Cc1cc(Br)ccc1-c1nc(C2C(=O)[C@@H]3[C@H](C2=O)[C@H]2CC[C@@H]3O2)c(C)s1` (stereo partly shown) [Compound T39] was tested, and the pest or weed control at 250 g/ha was 90%.

The compounds below were run on Alopecurus myosuroides (ALOMY) in the same assay as above. Details: 312 h, Rate 250 g/ha, evaluated after 13 days, read-out: Pre-Emergence Activity ALOMY (100=total damage to plant; 0=no damage to plant).
Format: in vivo
Procedure: as §1
For `Cc1sc(-c2ccc(Br)cc2F)nc1C1C(=O)[C@@H]2[C@H](C1=O)[C@H]1CC[C@@H]2O1` (stereo partly shown) [Compound T36], the pest or weed control at 250 g/ha was 90%. `Cc1sc(-c2ccc(Cl)s2)nc1C1C(=O)[C@@H]2[C@H](C1=O)[C@H]1CC[C@@H]2O1` (stereo partly shown) [Compound T37] showed a pest or weed control at 250 g/ha of 30%. With `Cc1sc(-c2ccc(Br)cn2)nc1C1C(=O)[C@@H]2[C@H](C1=O)[C@H]1CC[C@@H]2O1` (stereo partly shown) [Compound T38] the pest or weed control at 250 g/ha was 0%. `Cc1cc(Br)ccc1-c1nc(C2C(=O)[C@@H]3[C@H](C2=O)[C@H]2CC[C@@H]3O2)c(C)s1` (stereo partly shown) [Compound T39] was tested, and the pest or weed control at 250 g/ha was 70%.

The compounds below were run on Echinochloa crus-galli (ECHCG) in the same assay as above. Details: 312 h, Rate 250 g/ha, evaluated after 13 days, read-out: Pre-Emergence Activity ECHCG (100=total damage to plant; 0=no damage to plant).
Format: in vivo
Procedure: as §1
`Cc1sc(-c2ccc(Br)cc2F)nc1C1C(=O)[C@@H]2[C@H](C1=O)[C@H]1CC[C@@H]2O1` (stereo partly shown) [Compound T36] showed a pest or weed control at 250 g/ha of 100%. `Cc1sc(-c2ccc(Cl)s2)nc1C1C(=O)[C@@H]2[C@H](C1=O)[C@H]1CC[C@@H]2O1` (stereo partly shown) [Compound T37] showed a pest or weed control at 250 g/ha of 40%. For `Cc1sc(-c2ccc(Br)cn2)nc1C1C(=O)[C@@H]2[C@H](C1=O)[C@H]1CC[C@@H]2O1` (stereo partly shown) [Compound T38], the pest or weed control at 250 g/ha was 40%. Work on `Cc1cc(Br)ccc1-c1nc(C2C(=O)[C@@H]3[C@H](C2=O)[C@H]2CC[C@@H]3O2)c(C)s1` (stereo partly shown) [Compound T39] yielded a pest or weed control at 250 g/ha of 80%.

Each compound was assayed on Amaranthus retoflexus (AMARE) in the same assay as above. Details: Amaranthus retroflexus, 312 h, Rate 250 g/ha, evaluated after 13 days, read-out: Pre-Emergence Activity AMARE (100=total damage to plant; 0=no damage to plant).
Format: in vivo
Procedure: as §1
`Cc1sc(-c2ccc(Br)cc2F)nc1C1C(=O)[C@@H]2[C@H](C1=O)[C@H]1CC[C@@H]2O1` (stereo partly shown) [Compound T36] showed a pest or weed control at 250 g/ha of 0%. Work on `Cc1sc(-c2ccc(Cl)s2)nc1C1C(=O)[C@@H]2[C@H](C1=O)[C@H]1CC[C@@H]2O1` (stereo partly shown) [Compound T37] yielded a pest or weed control at 250 g/ha of 0%. Compound `Cc1sc(-c2ccc(Br)cn2)nc1C1C(=O)[C@@H]2[C@H](C1=O)[C@H]1CC[C@@H]2O1` (stereo partly shown) [Compound T38] has a pest or weed control at 250 g/ha of 0%. With `Cc1cc(Br)ccc1-c1nc(C2C(=O)[C@@H]3[C@H](C2=O)[C@H]2CC[C@@H]3O2)c(C)s1` (stereo partly shown) [Compound T39] the pest or weed control at 250 g/ha was 0%.

The compounds below were run on Setaria faberi (SETFA) (assay: Example B post-emergence herbicidal activity, glasshouse pot test). Details: 312 h, rate 250 g/ha, evaluated after 13 days, read-out: Post-emergence activity SETFA (100=total damage to plant; 0=no damage to plant).
Format: in vivo
Procedure: as §1
`Cc1sc(-c2ccc(Br)cc2F)nc1C1C(=O)[C@@H]2[C@H](C1=O)[C@H]1CC[C@@H]2O1` (stereo partly shown) [Compound T36] was tested, and the pest or weed control at 250 g/ha was 100%. `Cc1sc(-c2ccc(Cl)s2)nc1C1C(=O)[C@@H]2[C@H](C1=O)[C@H]1CC[C@@H]2O1` (stereo partly shown) [Compound T37] gave a pest or weed control at 250 g/ha of 90%. Work on `Cc1sc(-c2ccc(Br)cn2)nc1C1C(=O)[C@@H]2[C@H](C1=O)[C@H]1CC[C@@H]2O1` (stereo partly shown) [Compound T38] yielded a pest or weed control at 250 g/ha of 100%. In the case of `Cc1cc(Br)ccc1-c1nc(C2C(=O)[C@@H]3[C@H](C2=O)[C@H]2CC[C@@H]3O2)c(C)s1` (stereo partly shown) [Compound T39], the pest or weed control at 250 g/ha is reported as 100%.

Each compound was assayed on Avena fatua (AVEFA) in the same assay as above. Details: 312 h, rate 250 g/ha, evaluated after 13 days, read-out: Post-emergence activity AVEFA (100=total damage to plant; 0=no damage to plant).
Format: in vivo
Procedure: as §1
`Cc1sc(-c2ccc(Br)cc2F)nc1C1C(=O)[C@@H]2[C@H](C1=O)[C@H]1CC[C@@H]2O1` (stereo partly shown) [Compound T36] was tested, and the pest or weed control at 250 g/ha was 100%. In the case of `Cc1sc(-c2ccc(Cl)s2)nc1C1C(=O)[C@@H]2[C@H](C1=O)[C@H]1CC[C@@H]2O1` (stereo partly shown) [Compound T37], the pest or weed control at 250 g/ha is reported as 10%. Work on `Cc1sc(-c2ccc(Br)cn2)nc1C1C(=O)[C@@H]2[C@H](C1=O)[C@H]1CC[C@@H]2O1` (stereo partly shown) [Compound T38] yielded a pest or weed control at 250 g/ha of 90%. With `Cc1cc(Br)ccc1-c1nc(C2C(=O)[C@@H]3[C@H](C2=O)[C@H]2CC[C@@H]3O2)c(C)s1` (stereo partly shown) [Compound T39] the pest or weed control at 250 g/ha was 100%.

Each compound was assayed on Alopecurus myosuroides (ALOMY) in the same assay as above. Details: 312 h, rate 250 g/ha, evaluated after 13 days, read-out: Post-emergence activity ALOMY (100=total damage to plant; 0=no damage to plant).
Format: in vivo
Procedure: as §1
Work on `Cc1sc(-c2ccc(Br)cc2F)nc1C1C(=O)[C@@H]2[C@H](C1=O)[C@H]1CC[C@@H]2O1` (stereo partly shown) [Compound T36] yielded a pest or weed control at 250 g/ha of 100%. In the case of `Cc1sc(-c2ccc(Cl)s2)nc1C1C(=O)[C@@H]2[C@H](C1=O)[C@H]1CC[C@@H]2O1` (stereo partly shown) [Compound T37], the pest or weed control at 250 g/ha is reported as 50%. With `Cc1sc(-c2ccc(Br)cn2)nc1C1C(=O)[C@@H]2[C@H](C1=O)[C@H]1CC[C@@H]2O1` (stereo partly shown) [Compound T38] the pest or weed control at 250 g/ha was 90%. In the case of `Cc1cc(Br)ccc1-c1nc(C2C(=O)[C@@H]3[C@H](C2=O)[C@H]2CC[C@@H]3O2)c(C)s1` (stereo partly shown) [Compound T39], the pest or weed control at 250 g/ha is reported as 100%.

The compounds below were run on Echinochloa crus-galli (ECHCG) in the same assay as above. Details: 312 h, rate 250 g/ha, evaluated after 13 days, read-out: Post-emergence activity ECHCG (100=total damage to plant; 0=no damage to plant).
Format: in vivo
Procedure: as §1
With `Cc1sc(-c2ccc(Br)cc2F)nc1C1C(=O)[C@@H]2[C@H](C1=O)[C@H]1CC[C@@H]2O1` (stereo partly shown) [Compound T36] the pest or weed control at 250 g/ha was 100%. Compound `Cc1sc(-c2ccc(Cl)s2)nc1C1C(=O)[C@@H]2[C@H](C1=O)[C@H]1CC[C@@H]2O1` (stereo partly shown) [Compound T37] has a pest or weed control at 250 g/ha of 90%. `Cc1sc(-c2ccc(Br)cn2)nc1C1C(=O)[C@@H]2[C@H](C1=O)[C@H]1CC[C@@H]2O1` (stereo partly shown) [Compound T38] gave a pest or weed control at 250 g/ha of 100%. `Cc1cc(Br)ccc1-c1nc(C2C(=O)[C@@H]3[C@H](C2=O)[C@H]2CC[C@@H]3O2)c(C)s1` (stereo partly shown) [Compound T39] was tested, and the pest or weed control at 250 g/ha was 100%.

The compounds below were run on Amaranthus retoflexus (AMARE) in the same assay as above. Details: Amaranthus retroflexus, 312 h, rate 250 g/ha, evaluated after 13 days, read-out: Post-emergence activity AMARE (100=total damage to plant; 0=no damage to plant).
Format: in vivo
Procedure: as §1
With `Cc1sc(-c2ccc(Br)cc2F)nc1C1C(=O)[C@@H]2[C@H](C1=O)[C@H]1CC[C@@H]2O1` (stereo partly shown) [Compound T36] the pest or weed control at 250 g/ha was 30%. For `Cc1sc(-c2ccc(Cl)s2)nc1C1C(=O)[C@@H]2[C@H](C1=O)[C@H]1CC[C@@H]2O1` (stereo partly shown) [Compound T37], the pest or weed control at 250 g/ha was 0%. `Cc1sc(-c2ccc(Br)cn2)nc1C1C(=O)[C@@H]2[C@H](C1=O)[C@H]1CC[C@@H]2O1` (stereo partly shown) [Compound T38] was tested, and the pest or weed control at 250 g/ha was 0%. Compound `Cc1cc(Br)ccc1-c1nc(C2C(=O)[C@@H]3[C@H](C2=O)[C@H]2CC[C@@H]3O2)c(C)s1` (stereo partly shown) [Compound T39] has a pest or weed control at 250 g/ha of 0%.
